Reference: ChEMBL document CHEMBL1201862, “PubChem BioAssay data set” (2004)
Calls of active or inactive are those of the source.

How the values were obtained:
[1] = molecular target: Disintegrin and metalloproteinase domain-containing protein 17 (Homo sapiens, UniProt P78536); assay: inhibition of ADAM17 substrate cleavage – biochemical, quenched FRET substrate, counter-screen for ADAM10 exosite inhibitor project, dose response (AID 743253)
[2] = potency of ADAM10 substrate cleavage blockers – biochemical, QFRET, dose response (AID 743254);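 also: ADAM10 enzyme with the DM2 quenched FRET peptide as substrate; EDANS fluorescence gain as the protease cuts the substrate; inhibitor potency against ADAM10 proteolytic activity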
[3] = HIV-1 Vif–A3G interaction blockers – biochemical, TR-FRET, GST-Vif 1-94, biotin-A3G peptide, dose response retest, primary screen (AID 1117319); format: functional;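 also: TR-FRET signal of purified GST-Vif binding a biotinylated A3G peptide; inhibitors lower the FRET signal by blocking Vif and A3G binding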
[4] = A549 cell cytotoxicity, dose response, cytotoxicity control, plate reader, cherry-pick, antagonist series (AID 743412); format: functional, cell-based
[5] = toxicity toward HepG2 liver cells – cell-based, plate reader, cherry-pick, antagonist series, cytotoxicity control, dose response (AID 743416); format: functional
[6] = viability loss in HEK293 cells – cell-based, plate reader, cherry-picked samples, cytotoxicity control, dose response (AID 743446); format: functional
[7] = A cytotoxicity screen of small molecule inhibitors of the PhoP region in Salmonella typhi identified in the primary screen. [Related pubchem assays: 1850, 1864, 1985 ]; format: functional
[8] = Luminescence-based cell-based high throughput dose response assay to identify activators of the DAF-12 from the parasite S. stercoralis (ssDAF-12).; format: functional
[9] = molecular target: T1, Oxysterols receptor LXR-beta (Homo sapiens, UniProt P55055); assay: LXR agonists, Gal4 luciferase reporter, dose response, counter-screen for ssDAF-12 agonist project, cell-based, luminescence, HEK293, S. stercoralis campaign (AID 720737); format: functional; details: read-out: IC50 (the source's name)
T1 sequence (P55055 whole entry): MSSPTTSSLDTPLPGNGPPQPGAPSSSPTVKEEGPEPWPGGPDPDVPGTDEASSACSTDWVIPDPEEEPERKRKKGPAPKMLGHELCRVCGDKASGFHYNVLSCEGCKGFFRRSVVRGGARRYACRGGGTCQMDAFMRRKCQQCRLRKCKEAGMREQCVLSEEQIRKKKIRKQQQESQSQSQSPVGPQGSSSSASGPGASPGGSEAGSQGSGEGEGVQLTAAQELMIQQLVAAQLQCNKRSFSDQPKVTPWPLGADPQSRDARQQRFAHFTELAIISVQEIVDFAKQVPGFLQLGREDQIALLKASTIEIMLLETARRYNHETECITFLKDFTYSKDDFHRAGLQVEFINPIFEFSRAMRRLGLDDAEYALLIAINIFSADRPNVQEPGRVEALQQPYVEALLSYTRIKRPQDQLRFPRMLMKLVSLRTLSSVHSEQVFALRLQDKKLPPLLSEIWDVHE

[10] = molecular target: Large T antigen (Simian virus 40, UniProt P03070); format: functional, Betapolyomavirus macacae;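 also: Confirmatory-stage PubChem screen for compounds that inhibit SV40 T antigen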
[11] = Dd2 malaria parasite growth inhibition potency – SYBR Green, dry powder samples, dose response (AID 1159566); format: functional, cell-based;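 also: potency for growth inhibition with lower SYBR green DNA signal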
[12] = HIV-1 AD8 envelope cell-cell fusion blockers – cherry-pick, dose response (AID 652062); format: functional, cell-based;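 also: luciferase signal from cell-cell fusion driven by HIV-1 clade B AD8 Env; potency is for inhibitors of fusion seen as a drop in luminescence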
[13] = growth inhibition of PfATP4-mutant resistant parasites – NITD609-resistant line, SYBR Green, dry powder, dose response (AID 1159571); format: functional, cell-based;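 also: parasites synchronized at ring stage by sorbitol before testing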
[14] = blockers of HIV-1 envelope-mediated cell-cell fusion – cherry-pick, dose response (AID 652057); format: functional, cell-based
[15] = blockers of HIV-1 ZM109 envelope-driven cell-cell fusion – HeLa effector, CEM target cells, luciferase, cherry-pick, dose response (AID 652058); format: functional, cell-based;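 also: luciferase signal from HIV-1 Env mediated cell-cell fusion of effector and target cells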
[16] = P. falciparum Dd2 growth inhibitors, dose response, SYBR Green, cherry-picked samples (AID 1159567); format: functional, cell-based
[17] = growth inhibition of yeast DHODH-expressing 3D7 parasites – SYBR Green, dry powder samples, dose response (AID 1159570); format: functional, cell-based;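 also: parasite growth measured after 72 hours of compound exposure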
[18] = molecular target: Paired box protein Pax-8 (Homo sapiens, UniProt Q06710); assay: PAX8 transcriptional activity inhibition in RMG-I – RMG-I cells, luciferase, cherry-pick, dose response (AID 687027); format: functional, cell-based;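 also: luciferase reporter driven by Pax8 target thyroperoxidase promoter measured by SteadyGlo luminescence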
[19] = IGROV1 cell killing – plate reader, dry powder samples, PAX8 inhibitor project, dose response (AID 743043); format: functional, cell-based; details: IGROV-1
[20] = Trypanosoma cruzi growth suppression in host cells – NIH3T3 host cells, beta-gal luminescence, confirmation (AID 2044); format: functional, cell-based;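 also: intracellular parasites grown in NIH/3T3 mouse fibroblasts as host cells; luminescent beta-galactosidase reporter signal from transgenic T. cruzi replicating inside host cells; inhibitors lower the luminescence signal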
[21] = cells
[22] = NIH3T3 cell viability loss – ATP luminescence, mouse fibroblasts, counter-screen, dose response (AID 2010); format: functional, cell-based;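 also: cells exposed to compound for about 90 hours before reading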
[23] = molecular target: Estrogen receptor beta (Homo sapiens, UniProt Q92731);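 also: recombinant ER-beta bound to coactivator SRC1 peptide in presence of estradiol agonist; inhibitors block coactivator peptide binding and lower the FRET signal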
Estrogen receptor beta, sequence (Q92731 whole entry): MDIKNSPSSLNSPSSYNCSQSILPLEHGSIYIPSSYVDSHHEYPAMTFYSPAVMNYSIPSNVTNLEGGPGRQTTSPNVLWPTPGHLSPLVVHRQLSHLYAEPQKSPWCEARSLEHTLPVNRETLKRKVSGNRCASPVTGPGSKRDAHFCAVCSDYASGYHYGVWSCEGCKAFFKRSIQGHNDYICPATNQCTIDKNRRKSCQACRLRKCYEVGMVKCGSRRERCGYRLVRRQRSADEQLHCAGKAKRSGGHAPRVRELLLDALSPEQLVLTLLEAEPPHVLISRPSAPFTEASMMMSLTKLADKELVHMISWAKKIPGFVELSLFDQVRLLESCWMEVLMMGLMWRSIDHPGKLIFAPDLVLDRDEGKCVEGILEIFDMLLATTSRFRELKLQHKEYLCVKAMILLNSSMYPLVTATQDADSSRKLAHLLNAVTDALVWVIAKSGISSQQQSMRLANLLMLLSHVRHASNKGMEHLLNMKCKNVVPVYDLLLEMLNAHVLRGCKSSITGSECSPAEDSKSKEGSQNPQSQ

Disintegrin and metalloproteinase domain-containing protein 17, sequence (P78536 whole entry, the tested form may be a part): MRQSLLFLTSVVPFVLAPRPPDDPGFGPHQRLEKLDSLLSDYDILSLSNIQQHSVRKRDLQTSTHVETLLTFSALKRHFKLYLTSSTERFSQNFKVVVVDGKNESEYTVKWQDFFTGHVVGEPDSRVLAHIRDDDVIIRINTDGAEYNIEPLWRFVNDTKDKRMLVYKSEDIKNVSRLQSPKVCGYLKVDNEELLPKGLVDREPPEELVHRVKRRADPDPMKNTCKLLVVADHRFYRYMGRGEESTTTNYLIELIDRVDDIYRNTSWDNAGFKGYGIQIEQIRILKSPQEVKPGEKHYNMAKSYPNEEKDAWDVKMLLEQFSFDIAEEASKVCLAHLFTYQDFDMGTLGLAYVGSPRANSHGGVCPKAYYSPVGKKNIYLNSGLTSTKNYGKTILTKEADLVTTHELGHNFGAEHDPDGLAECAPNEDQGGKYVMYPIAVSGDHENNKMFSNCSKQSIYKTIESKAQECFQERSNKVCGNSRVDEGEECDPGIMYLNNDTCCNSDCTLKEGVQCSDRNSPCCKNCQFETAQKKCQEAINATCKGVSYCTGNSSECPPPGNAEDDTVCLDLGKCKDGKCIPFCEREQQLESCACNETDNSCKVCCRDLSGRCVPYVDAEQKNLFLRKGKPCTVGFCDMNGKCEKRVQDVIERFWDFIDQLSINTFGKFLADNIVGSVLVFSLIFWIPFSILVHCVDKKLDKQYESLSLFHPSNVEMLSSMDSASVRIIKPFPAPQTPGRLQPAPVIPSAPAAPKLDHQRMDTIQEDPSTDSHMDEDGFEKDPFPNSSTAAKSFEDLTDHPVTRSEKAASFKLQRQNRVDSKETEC
Paired box protein Pax-8, sequence (Q06710 whole entry): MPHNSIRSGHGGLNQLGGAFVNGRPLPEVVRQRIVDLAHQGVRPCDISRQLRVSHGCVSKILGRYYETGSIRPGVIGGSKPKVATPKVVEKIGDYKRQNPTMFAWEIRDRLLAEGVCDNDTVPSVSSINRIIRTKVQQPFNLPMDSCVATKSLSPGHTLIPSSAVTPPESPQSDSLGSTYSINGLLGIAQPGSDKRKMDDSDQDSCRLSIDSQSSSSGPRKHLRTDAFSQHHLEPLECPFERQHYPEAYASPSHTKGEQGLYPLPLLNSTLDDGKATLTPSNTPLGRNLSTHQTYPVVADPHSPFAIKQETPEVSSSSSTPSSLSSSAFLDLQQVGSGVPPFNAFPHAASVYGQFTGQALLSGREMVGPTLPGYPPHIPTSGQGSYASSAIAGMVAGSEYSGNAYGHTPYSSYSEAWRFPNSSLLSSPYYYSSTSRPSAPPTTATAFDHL
Large T antigen, sequence (P03070 whole entry): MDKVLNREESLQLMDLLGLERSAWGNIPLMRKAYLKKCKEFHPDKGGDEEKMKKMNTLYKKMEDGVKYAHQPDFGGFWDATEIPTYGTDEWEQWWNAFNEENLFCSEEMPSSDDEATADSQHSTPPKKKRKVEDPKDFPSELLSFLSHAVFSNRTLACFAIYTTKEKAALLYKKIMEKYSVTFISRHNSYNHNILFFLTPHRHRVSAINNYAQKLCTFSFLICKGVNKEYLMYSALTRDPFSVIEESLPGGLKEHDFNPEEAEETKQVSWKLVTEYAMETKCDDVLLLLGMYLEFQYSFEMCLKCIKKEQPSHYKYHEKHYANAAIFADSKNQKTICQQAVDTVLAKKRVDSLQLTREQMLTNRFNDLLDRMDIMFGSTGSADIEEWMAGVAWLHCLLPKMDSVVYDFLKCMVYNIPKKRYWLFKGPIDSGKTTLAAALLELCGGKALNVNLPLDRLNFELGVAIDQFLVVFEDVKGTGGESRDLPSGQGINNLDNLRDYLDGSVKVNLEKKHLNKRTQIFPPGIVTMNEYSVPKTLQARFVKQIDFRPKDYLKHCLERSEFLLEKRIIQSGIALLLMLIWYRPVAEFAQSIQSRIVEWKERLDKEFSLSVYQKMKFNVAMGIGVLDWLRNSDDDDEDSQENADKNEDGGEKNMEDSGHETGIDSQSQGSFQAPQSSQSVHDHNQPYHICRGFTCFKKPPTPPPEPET

## COc1ccc(NC(=O)c2ccc(-c3ccccc3)cc2)cc1NS(=O)(=O)c1ccc(F)cc1
[1]
  IC50: > 69.5 µM (inactive)
[2]
  IC50: > 69.5 µM (inactive)

## COc1ccc(Cl)cc1N(CC(=O)Nc1ccc2c(c1)OCO2)S(C)(=O)=O
[3]
  IC50: > 100 µM (active)

## COc1ccc2cc(C#N)c(Nc3cccc(F)c3)nc2c1
[4]
  AC50: > 52 µM (inactive)
[5]
  AC50: > 52 µM (inactive)
[6]
  AC50: > 52 µM (inactive)

## CCCNC(=O)C1CCN(c2ccc(S(=O)(=O)N3CCOCC3)cc2Cl)CC1
[7]
  EC50: > 50 µM (active)

## COCCCNc1nc2c(-c3ccc(C)cc3)nnn2c2ccccc12
[8]
  IC50: > 67.5 µM (inactive)
[9]
  EC50: > 67.5 µM (inactive)

## CCN(CC)c1ccc(NC(=O)c2ccco2)cc1
[3]
  IC50: > 100 µM (active)
[10]
  IC50: 5.01 µM (active)

## CCS(=O)(=O)c1ccc2oc(Nc3cccc(OC)c3)nc2c1
[3]
  IC50: > 100 µM (active)

## Clc1cccc(-c2nc3c4ccccc4ccn3c2Cc2ccsc2)c1
[8]
  IC50: > 67.6 µM (inactive)
[9]
  EC50: > 67.6 µM (inactive)

## C[C@@H](NC(=O)C[C@H]1C[C@@H]2c3cc(NS(=O)(=O)c4ccc(F)cc4)ccc3O[C@@H]2[C@H](CO)O1)c1ccccc1
[11]
  AC50: 1.4 µM (active)
[12]
  AC50: 31.7 µM (active)
[13]
  AC50: 1.09 µM (active)
[14]
  AC50: 1.12 µM (active)
[15]
  AC50: 3.32 µM (active)
[16]
  AC50: 2.22 µM (active)
[17]
  AC50: 2.76 µM (active)

## C[C@@H]1CCCCO[C@@H](CN(C)Cc2ccc(C(F)(F)F)cc2)[C@H](C)CN([C@H](C)CO)C(=O)c2cc(NC(=O)c3ccccc3)ccc2O1
[18]
  AC50: 9.55 µM (active)
[19]
  AC50: 40.9 µM (active)

## COc1ccc(-n2c(Cc3cccs3)nnc2SCC(=O)Nc2ccc(OCc3ccccc3)cc2)cc1
[1]
  IC50: > 69.5 µM (inactive)
[2]
  IC50: > 69.5 µM (inactive)

## C[C@]12CCC(O)CC1=CCC1C2CC[C@]2(C)/C(=N\NC(N)=S)CCC12 (some centres undefined)
[20]
  EC50: < 0.1 µM (active)
[21]
  EC50: 0.103 µM (active)
[22]
  EC50: > 60 µM (not active)

## Nc1[nH]n(-c2ccccc2)c(=O)c1/N=N/c1ccccc1[N+](=O)[O-]
[23]
  IC50: > 50 µM (not active)
